Values after ≈ are worked out from the molar mass of the structure shown. Read-outs that look alike come from different tables or passages of the source.
Columns and labels:
[1] = system: class I ADH isozymes containing at least one γ-subunit; details: cited from earlier work
[2] = intravenous, mice; cited from earlier work
ALDH-I or ALDH-II = assay: Survey of structurally related compounds for ALDH inhibition; type: biochemical, human
Protocol: For the study of the inhibition of ALDH-I by structurally related compounds to generate the data shown in Tables IV and V, each individual compound was dissolved at different concentrations in methanol and was added to the assay medium as 10 μL aliquots. For controls, 10 […] of methanol was added to the assay medium. In a standard ALDH-I assay, the assay medium contains 0.1 M sodium pyrophosphate pH 9.5, 0.15 M KCl, 1 mM NAD^+, 1% methanol, 5 μM acetaldehyde, 5-10 nM ALDH-I and various concentrations of inhibitor. The enzyme reaction rates were measured by monitoring the production of NADH at 340 nm (ε=6.22 mM^-1 cm^-1) with a Varian Cary 219 spectrophotometer thermostated at 25° C. (Fong et al., 1989, supra). The inhibition of ALDH-I by the inhibitors was calculated as: [formula]
where Vo is the enzyme reaction rate measured in the absence of inhibitor, and where Vi is the enzyme reaction rate measured in the presence of inhibitor. […] IC50 values are related to the underlying Ki values.

[3] = two human volunteers, after 60 hours; cited from earlier work
ADH isozymes = assay: Inhibition of ADH; type: biochemical, human
ALDH-I [4] = details: via reactive product of catabolism; cited from earlier work
ALDH-I [5] = details: cited from earlier work
ALDH-II [6] = details: cited from earlier work
[7] = cited from earlier work
[8] = experimental animals; cited from earlier work
alcohol consumption [9] = details: rat, in vivo; cited from earlier work
ALDH-II [10] = details: via reactive product of catabolism; cited from earlier work
euphoria = details: double-blind study in humans; cited from earlier work
ALDH [11] = details: cited from earlier work
human class IV ADH = details: cited from earlier work
[12] = Plasma drug concentration versus time after a single 10 mg dose; type: in vivo; details: golden hamster
Excerpt: Five hours later the plasma concentrations of both inhibitors were still above […], far above their competitive inhibition constants for ALDH-I.

ALDH-I [13] = molecular target: T1, ALDH-I (Homo sapiens, UniProt P05091); assay: Competitive inhibition of ALDH-I with acetaldehyde as substrate, progress curve method; type: biochemical; parameters: A liver sample (50 g wet weight) with the usual Caucasian ALDH phenotype (both ALDH-I and ALDH-II present); from tissue; host or cells: human liver (autopsy), purified by CM-52, AMP-agarose and DEAE HPLC
T1 sequence (P05091 18-517): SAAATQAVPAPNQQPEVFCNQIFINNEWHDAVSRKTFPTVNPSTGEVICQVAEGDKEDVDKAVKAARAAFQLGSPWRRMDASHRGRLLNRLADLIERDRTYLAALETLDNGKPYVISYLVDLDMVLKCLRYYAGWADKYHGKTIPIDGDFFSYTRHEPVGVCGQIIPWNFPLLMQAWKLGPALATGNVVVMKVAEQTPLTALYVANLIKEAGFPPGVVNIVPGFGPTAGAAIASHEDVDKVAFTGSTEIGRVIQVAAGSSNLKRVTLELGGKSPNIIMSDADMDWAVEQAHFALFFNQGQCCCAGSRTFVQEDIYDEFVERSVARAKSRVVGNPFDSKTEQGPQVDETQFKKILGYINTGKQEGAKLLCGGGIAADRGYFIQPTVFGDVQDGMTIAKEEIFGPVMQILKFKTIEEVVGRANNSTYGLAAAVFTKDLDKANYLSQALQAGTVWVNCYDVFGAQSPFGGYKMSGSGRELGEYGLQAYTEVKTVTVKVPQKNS
Excerpt: The progress curve method described by Klyosov and Berezin, 1972, Biokhimiya (Engl. transl.), Plenum, New York, 22: 141-151, was used instead of the initial velocilty method of Example 3 to obtain precis* values for inhibition constants for ALDH-I with acetaldehyde as substrate and the very tight binding novel inhibitors (Table VI).

physchem = details: water
ALDH-II [14] = molecular target: T2, ALDH-II (Homo sapiens, UniProt P00352); assay: Competitive inhibition of ALDH-II with acetaldehyde as substrate; type: biochemical; parameters: A liver sample (50 g wet weight) with the usual Caucasian ALDH phenotype (both ALDH-I and ALDH-II present); from tissue; host or cells: human liver (autopsy), purified by CM-52, AMP-agarose and DEAE HPLC; details: acetaldehyde as substrate, competitive; read-out: Ki, ALDH-II
T2 sequence (P00352 1-501): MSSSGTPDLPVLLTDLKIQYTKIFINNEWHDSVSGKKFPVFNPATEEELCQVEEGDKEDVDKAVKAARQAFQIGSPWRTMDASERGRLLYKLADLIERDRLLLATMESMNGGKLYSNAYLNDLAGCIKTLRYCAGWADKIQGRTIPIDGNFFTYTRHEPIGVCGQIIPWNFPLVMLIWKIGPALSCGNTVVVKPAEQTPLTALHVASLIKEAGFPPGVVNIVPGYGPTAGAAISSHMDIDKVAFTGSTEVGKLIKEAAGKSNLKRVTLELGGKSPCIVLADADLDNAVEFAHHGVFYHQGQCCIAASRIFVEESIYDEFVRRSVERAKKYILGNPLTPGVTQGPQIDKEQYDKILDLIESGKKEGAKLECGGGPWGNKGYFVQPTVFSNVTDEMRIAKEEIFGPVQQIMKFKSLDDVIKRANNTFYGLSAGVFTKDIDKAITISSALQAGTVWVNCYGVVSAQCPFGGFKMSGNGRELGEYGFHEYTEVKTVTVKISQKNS

golden hamsters = assay: Dose effect on free choice ethanol intake in golden hamsters, i.p.; type: in vivo, golden hamster
Excerpt: It is common practice in quantitative drug studies with rodents to use intraperitoneal (i.p.) administration to deliver drug doses accurately (Goodman and Gilman, 1975, The Pharmacological Basis of Therapeutics, 5th ed., Macmillan, N.Y., p. 8). In particular, this method avoids variability introduced by technical difficulties of oral administration via feeding (full versus empty stomach, etc.), variations in drug transport in the gastrointestinal tract (variations in intestinal fauna and flora, individual variations in absorption rate expected of outbred animals, etc.) and other factors. […] As a control 1 ml of sterile saline was injected i.p. daily during the baseline period (typically 7-9 days) that establishes drinking preference without the drug. Saline injection i.p. had no effect on the drinking behavior of golden hamsters. Ethanol was provided as a 20% solution. Hamsters could be used more than once (but were not used more than three times) in a cycle of baseline saline injections followed by drug injections, each cycle with the drug at a different dose.
The response to daidzin treatment was computed as:
% Response=(Vo -Vd)×100/Vo

ALDH-II [15] = details: high Km cytosolic isozyme; cited from earlier work
ALDH-I [16] = details: cited from earlier work; remark: listed apart in the source
alcohol consumption [17] = details: placebo-controlled clinical trials; cited from earlier work
[18] = system: dopamine-β-hydroxylase, microsomal mixed function oxidases and other sulfhydryl-containing enzymes; details: cited from earlier work
ALDH [19] = details: cited from earlier work; remark: listed apart in the source
[20] = substrate: C=O; assay: purified protein, by the assay type; details: pH 9.5; 25.0 °C
Protocol: The inhibition kinetics were studied by the initial velocity method (Dixon and Webb, 1979, Enzymes, 3rd ed., Longman, Great Britain). […] The initial reaction rates were measured in a pH 9.5 assay medium 0.1 11 in glycine-NaOH, 0. […] The enzyme reaction rates were followed by monitoring the production of NADH at 340 nm (ε-6.22 mM^-1 cm^-1) with a Varian Cary 219 spectrophotometer thermostated at 25° C. The kinetic data were analyzed by standard graphical methods.

C[C@]12CC[C@H]3[C@@H](CCC4=CC(=O)CC[C@@]43C)[C@@H]1CC[C@@H]2O [testosterone]
selective inhibition of γ-subunit class I ADH [1]: selectively inhibited

O=c1c(-c2ccc(O)cc2)coc2cc(O)ccc12 [Daidzein]
half-life [2]: on the order of one hour
ALDH inhibition (ALDH-I or ALDH-II): does not inhibit ALDH
excretion in urine and feces [3]: little daidzein had appeared in urine and feces after 60 hours
ADH inhibition (ADH isozymes): selectively inhibits certain ADH isozymes

N#CN [cyanamide]
inhibition of ALDH-I in vivo (ALDH-I [4]): inhibits both isozymes
inhibition of ALDH-I in vitro (ALDH-I [5]): Neither ALDH-I (the low Km isozyme) nor ALDH-II (the high Km isozyme) are inhibited in vitro
inhibition of ALDH-II in vitro (ALDH-II [6]): Neither ALDH-I (the low Km isozyme) nor ALDH-II (the high Km isozyme) are inhibited in vitro
liver injury ([7]; alcoholics treated with cyanamide): liver injury, including generation of ground-glass inclusion bodies in liver cells
cardiotoxic effects ([7]; in vivo): cardiotoxic effects, including hypotension and even cardiac death
antithyroid activity [8]: significant antithyroid activity
alcohol consumption after alcohol deprivation (alcohol consumption [9]): increase in alcohol consumption
inhibition of ALDH-II in vivo (ALDH-II [10]): inhibits both isozymes
effect with low doses of alcohol (euphoria): induces and enhances euphoria
reversibility of ALDH inhibition (ALDH [11]; in vivo): reversible
time of maximal ALDH inhibition after drug administration (ALDH [11]; in vivo): 1 to 2 h
restoration of ALDH activity within 24 hours (ALDH [11]; within 24 hours): 80%

CCO [ethanol]
Km (human class IV ADH): 41 mM

O=C(O)CCCCCCOc1ccc2c(=O)c(-c3ccc(O)cc3)coc2c1 [Daidzein 7-(ω-carboxyhexyl) ether, daidzein 7-(ω-carboxyhexyl) ether]
time to maximal plasma concentration after injection ([12]; i.p.): within about an hour after injection
Cmax ([12]; plasma, ip, read-out: maximal plasma concentration): 4.5 µM
Ki (ALDH-I [13]): 9 nM
solubility (physchem): 13 mM (≈ 4970 µg/mL)
Ki (ALDH-II [14]): 215 nM
suppression of alcohol intake, hamster B7 (golden hamsters; 10 mg/day, i.p., trained hamster B7): 69%
suppression of alcohol intake, hamster E23 (golden hamsters; 10 mg/day, i.p., trained hamster E23): 72%
potency relative to daidzin, suppression of alcohol intake (golden hamsters; assuming a dose response slope similar to that of daidzin): not more than twice as potent as daidzin

CCN(CC)C(=S)SSC(=S)N(CC)CC [disulfiram, tetraethylthiuram disulfide]
inhibition of ALDH-II in vitro (ALDH-II [15]): potent inhibitor
inhibition of ALDH-I in vitro (ALDH-I [16]; major mitochondrial isozyme): only slightly
inhibition of ALDH-I in vitro in presence of mercaptans (ALDH-I [16]; trace amounts of 2-mercaptoethanol or methanethiol): inactivated
skin toxicity and neuropathy ([7]; in vivo): peripheral neuropathy
reduction of alcohol consumption vs placebo (alcohol consumption [17]): no more effective than the placebo control
specificity of enzyme inhibition [18]: broadly acting but non-specific inhibitor
reversibility of ALDH inhibition in vivo (ALDH [19]): irreversible
time over which ALDH is inhibited in vivo (ALDH [19]): 12 h
time to restoration of ALDH activity (ALDH [19]; in vivo, de novo enzyme synthesis): ≥ 6 days
effect with low doses of alcohol (euphoria): induces and enhances euphoria

CCOc1ccc2c(=O)c(-c3ccc(O)cc3)coc2c1 [Daidzein 7-ethyl ether]
Ki (ALDH-I [13]): 38 nM
Ki (ALDH-II [14]): 440 nM

B1: human ALDH-II (Homo sapiens) (protein)
chain: T2 sequence (P00352 1-501)
Km [20]: 6.6 mM

From US6255497A, “Method for the inhibition of ALDH-I useful in the treatment of alcohol dependence or alcohol abuse” (priority 1998, dated 2001)
